Source: PubChem BioAssay (NCI)
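Dose response: 5 concentrations. Exposure: 48 h. Format: 96-well plates. Endpoint: linear interpolation; highest concentration if not reached. TGI denotes the concentration required for complete inhibition of growth.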

Assays:
Assay in all cases: DTP human tumour cell line panel, 48 h
M19-MEL melanoma = tested on: M19-MEL melanoma
KM20L2 colon = tested on: KM20L2 colon
SNB-78 CNS = tested on: SNB-78 CNS
SK-MEL-5 melanoma = tested on: SK-MEL-5 melanoma
DLD-1 colon = tested on: DLD-1 colon
HCT-15 colon = tested on: HCT-15 colon
XF 498 CNS = tested on: XF 498 CNS
HCC-2998 colon = tested on: HCC-2998 colon
SF-268 CNS = tested on: SF-268 CNS
LXFL 529 NSCLC = tested on: LXFL 529 NSCLC
HOP-18 NSCLC = tested on: HOP-18 NSCLC
SK-OV-3 ovarian = tested on: SK-OV-3 ovarian
DMS 114 small cell lung = tested on: DMS 114 small cell lung
T-47D breast = tested on: T-47D breast
DMS 273 small cell lung = tested on: DMS 273 small cell lung
MDA-MB-435 = tested on: MDA-MB-435
RXF-631 renal = tested on: RXF-631 renal

Measured: TGI

CN(C)CCSC(=Nc1ccccc1)N1C=COC=C1
34 µM: SK-MEL-5 melanoma
> 100 µM: KM20L2 colon | HOP-18 NSCLC | SK-OV-3 ovarian
42.5 µM: SF-268 CNS
30.6 µM: LXFL 529 NSCLC
90.1 µM: SNB-78 CNS
32.4 µM: DLD-1 colon
34.8 µM: MDA-MB-435
27.9 µM: DMS 114 small cell lung
32.5 µM: M19-MEL melanoma
35.7 µM: DMS 273 small cell lung
74.4 µM: T-47D breast
47.4 µM: HCT-15 colon
85.3 µM: XF 498 CNS
50.5 µM: HCC-2998 colon

Cc1ccc(C2(C)NC(=S)N(NC(N)=S)C2=S)cc1 (centres undefined)
not listed: SNB-78 CNS | HOP-18 NSCLC | SK-OV-3 ovarian | T-47D breast | MDA-MB-435
> 100 µM: all other assays above

Cc1c(/C=N/NC(=O)c2ccccc2)c(=O)n(-c2ccccc2)n1C
not listed: SK-MEL-5 melanoma | T-47D breast | MDA-MB-435 | RXF-631 renal
> 100 µM: all other assays above

O=C1NC2OCC(O)C(O1)C2O (centres undefined)
not listed: HCC-2998 colon | T-47D breast | MDA-MB-435
> 100 µM: all other assays above

Cc1ccc(S(=O)(=O)NC(=O)C2(Br)S(=O)(=O)OCCOS2(=O)=O)cc1
not listed: HOP-18 NSCLC | T-47D breast | MDA-MB-435 | RXF-631 renal
> 100 µM: all other assays above

CC(N)C(=O)c1ccc(O)cc1 (centres undefined)
not listed: M19-MEL melanoma | XF 498 CNS | T-47D breast | MDA-MB-435
> 100 µM: all other assays above

CC1=C2C(=O)C3[C@@H](CCC4=CC(=O)CC[C@@]43C)C2CC[C@]12O[C@@H]1C[C@H](C)CN[C@H]1[C@H]2C (some centres undefined)
28.9 µM: DMS 114 small cell lung
42.8 µM: DMS 273 small cell lung
94.4 µM: XF 498 CNS
not listed: SNB-78 CNS | T-47D breast | MDA-MB-435 | RXF-631 renal
> 100 µM: all other assays above
